ChEMBL document CHEMBL3045770, “Design and synthesis of some thieno[2,3-c]pyridazine derivatives of expected anticancer activity” (2013)

What was measured:
Type in all cases: functional
[1] = test system: SNB-19; assay: Cytotoxicity against Homo sapiens (human) SNB19 assessed as cell growth at 10 uM after 48 hr by SRB assay relative to control; conditions: SNB-19, 48 h, read-out: Activity
[2] = test system: SF-295; assay: Cytotoxicity against Homo sapiens (human) SF295 assessed as cell growth at 10 uM after 48 hr by SRB assay relative to control; conditions: SF-295, 48 h, read-out: Activity
[3] = test system: KM12; assay: Cytotoxicity against Homo sapiens (human) KM12 assessed as cell growth at 10 uM after 48 hr by SRB assay relative to control; conditions: KM12, 48 h, read-out: Activity
[4] = test system: HT-29; assay: Cytotoxicity against Homo sapiens (human) HT-29 assessed as cell growth at 10 uM after 48 hr by SRB assay relative to control; conditions: HT-29, 48 h, read-out: Activity
[5] = test system: HCT-116; assay: Cytotoxicity against Homo sapiens (human) HCT116 assessed as cell growth at 10 uM after 48 hr by SRB assay relative to control; conditions: HCT-116, 48 h, read-out: Activity
[6] = test system: HCC 2998; assay: Cytotoxicity against Homo sapiens (human) HCC2998 assessed as cell growth at 10 uM after 48 hr by SRB assay relative to control; conditions: HCC 2998, 48 h, read-out: Activity
[7] = test system: NCI-H522; assay: Cytotoxicity against Homo sapiens (human) NCI-H522 assessed as cell growth at 10 uM after 48 hr by SRB assay relative to control; conditions: NCI-H522, 48 h, read-out: Activity
[8] = test system: NCI-H460; assay: Cytotoxicity against Homo sapiens (human) NCI-H460 assessed as cell growth at 10 uM after 48 hr by SRB assay relative to control; conditions: NCI-H460, 48 h, read-out: Activity
[9] = test system: NCI-H226; assay: Cytotoxicity against Homo sapiens (human) NCI-H226 assessed as cell growth at 10 uM after 48 hr by SRB assay relative to control; conditions: NCI-H226, 48 h, read-out: Activity
[10] = test system: NCI-H23; assay: Cytotoxicity against Homo sapiens (human) NCI-H23 assessed as cell growth at 10 uM after 48 hr by SRB assay relative to control; conditions: NCI-H23, 48 h, read-out: Activity
[11] = test system: EKVX; assay: Cytotoxicity against Homo sapiens (human) EKVX assessed as cell growth at 10 uM after 48 hr by SRB assay relative to control; conditions: read-out: Activity
[12] = test system: HOP-62; assay: Cytotoxicity against Homo sapiens (human) HOP62 assessed as cell growth at 10 uM after 48 hr by SRB assay relative to control; conditions: HOP-62, 48 h, read-out: Activity
[13] = test system: A549; assay: Cytotoxicity against Homo sapiens (human) A549 assessed as cell growth at 10 uM after 48 hr by SRB assay relative to control; conditions: A549, 48 h, read-out: Activity
[14] = test system: MOLT-4; assay: Cytotoxicity against Homo sapiens (human) MOLT4 assessed as cell growth at 10 uM after 48 hr by SRB assay relative to control; conditions: MOLT-4, 48 h, read-out: Activity
[15] = test system: CAKI-1; assay: Cytotoxicity against Homo sapiens (human) Caki1 assessed as cell growth at 10 uM after 48 hr by SRB assay relative to control; conditions: CAKI-1, 48 h, read-out: Activity
[16] = test system: SK-OV-3; assay: Cytotoxicity against Homo sapiens (human) SKOV3 assessed as cell growth at 10 uM after 48 hr by SRB assay relative to control; conditions: SK-OV-3, 48 h, read-out: Activity
[17] = test system: MCF7; assay: Cytotoxicity against Homo sapiens (human) MCF7 assessed as cell growth at 10 uM after 48 hr by SRB assay relative to control; conditions: MCF7, 48 h, read-out: Activity
[18] = Cytotoxicity against Homo sapiens (human) NCI-ADR-RES assessed as cell growth at 10 uM after 48 hr by SRB assay relative to control; conditions: read-out: Activity
[19] = test system: OVCAR-3; assay: Cytotoxicity against Homo sapiens (human) OVCAR3 assessed as cell growth at 10 uM after 48 hr by SRB assay relative to control; conditions: OVCAR-3, 48 h, read-out: Activity
[20] = test system: OVCAR-5; assay: Cytotoxicity against Homo sapiens (human) OVCAR5 assessed as cell growth at 10 uM after 48 hr by SRB assay relative to control; conditions: OVCAR-5, 48 h, read-out: Activity
[21] = test system: UACC-62; assay: Cytotoxicity against Homo sapiens (human) UACC62 assessed as cell growth at 10 uM after 48 hr by SRB assay relative to control; conditions: UACC-62, 48 h, read-out: Activity
[22] = test system: SK-MEL-28; assay: Cytotoxicity against Homo sapiens (human) SK-MEL-28 assessed as cell growth at 10 uM after 48 hr by SRB assay relative to control; conditions: SK-MEL-28, 48 h, read-out: Activity
[23] = test system: SK-MEL-5; assay: Cytotoxicity against Homo sapiens (human) SK-MEL-5 assessed as cell growth at 10 uM after 48 hr by SRB assay relative to control; conditions: SK-MEL-5, 48 h, read-out: Activity
[24] = test system: M14; assay: Cytotoxicity against Homo sapiens (human) M14 assessed as cell growth at 10 uM after 48 hr by SRB assay relative to control; conditions: M14, 48 h, read-out: Activity
[25] = test system: MDA-MB-435; assay: Cytotoxicity against Homo sapiens (human) MDA-MB-435 assessed as cell growth at 10 uM after 48 hr by SRB assay relative to control; conditions: MDA-MB-435, 48 h, read-out: Activity
[26] = test system: LOX IMVI; assay: Cytotoxicity against Homo sapiens (human) LOXIMVI assessed as cell growth at 10 uM after 48 hr by SRB assay relative to control; conditions: read-out: Activity
[27] = test system: CCRF-CEM; assay: Cytotoxicity against Homo sapiens (human) CCRF-CEM assessed as cell growth at 10 uM after 48 hr by SRB assay relative to control; conditions: read-out: Activity
[28] = test system: HL-60(TB); assay: Cytotoxicity against Homo sapiens (human) HL-60(TB) assessed as cell growth at 10 uM after 48 hr by SRB assay relative to control; conditions: HL-60, 48 h, read-out: Activity
[29] = test system: 786-0; assay: Cytotoxicity against Homo sapiens (human) 786-0 assessed as cell growth at 10 uM after 48 hr by SRB assay relative to control; conditions: 786-0, 48 h, read-out: Activity
[30] = test system: BT-549; assay: Cytotoxicity against Homo sapiens (human) BT549 assessed as cell growth at 10 uM after 48 hr by SRB assay relative to control; conditions: BT-549, 48 h, read-out: Activity
[31] = test system: Hs-578T; assay: Cytotoxicity against Homo sapiens (human) Hs 578T assessed as cell growth at 10 uM after 48 hr by SRB assay relative to control; conditions: read-out: Activity
[32] = test system: DU-145; assay: Cytotoxicity against Homo sapiens (human) DU145 assessed as cell growth at 10 uM after 48 hr by SRB assay relative to control; conditions: DU-145, 48 h, read-out: Activity
[33] = test system: SN12C; assay: Cytotoxicity against Homo sapiens (human) SN12C assessed as cell growth at 10 uM after 48 hr by SRB assay relative to control; conditions: read-out: Activity

Question: Which results are given for `Oc1c(-c2nnc(-c3ccc(Cl)cc3)o2)sc2nnc(-c3ccccc3)c(-c3ccccc3)c12`?
Answer: growth at 10 µM [1]: 43.9%; growth at 10 µM [2]: 23.5%; growth at 10 µM [3]: 39.2%; growth at 10 µM [4]: 91.2%; growth at 10 µM [5]: 19.3%; growth at 10 µM [6]: 54.7%; growth at 10 µM [7]: 75.1%; growth at 10 µM [8]: 27.4%; growth at 10 µM [9]: 67.2%; growth at 10 µM [10]: 56.5%; growth at 10 µM [11]: 58.5%; growth at 10 µM [12]: 51.2%; growth at 10 µM [13]: 51.2%; growth at 10 µM [14]: 35.8%; growth at 10 µM [15]: 24.5%; growth at 10 µM [16]: 61.9%; growth at 10 µM [17]: 33.5%; growth at 10 µM [18]: 15.5%; growth at 10 µM [19]: 26%; growth at 10 µM [20]: 84.8%; growth at 10 µM [21]: 38%; growth at 10 µM [22]: 71.8%; growth at 10 µM [23]: 53.7%; growth at 10 µM [24]: 55.3%; growth at 10 µM [25]: 58.6%; growth at 10 µM [26]: 28.1%; growth at 10 µM [27]: 27.6%; growth at 10 µM [28]: 52.5%; growth at 10 µM [29]: 61.1%; growth at 10 µM [30]: 56%; growth at 10 µM [31]: 62.4%; growth at 10 µM [32]: 71.9%

Question: Which growth at 10 µM [1] does the source give for `CSc1nnc(-c2sc3nnc(-c4ccccc4)c(-c4ccccc4)c3c2O)o1` here?
Answer: 66.4%

Question: And the growth at 10 µM [2]?
Answer: 40.9%

Question: And the growth at 10 µM [3]?
Answer: 72.9%

Question: And the growth at 10 µM [4]?
Answer: 107%

Question: What about the growth at 10 µM [5] of the same compound?
Answer: 60.9%

Question: And the growth at 10 µM [7]?
Answer: 96.6%

Question: What about the growth at 10 µM [8] of the same compound?
Answer: 56.7%

Question: What about the growth at 10 µM [9] of the same compound?
Answer: 87.7%

Question: What about the growth at 10 µM [11] of the same compound?
Answer: 77.5%

Question: And the growth at 10 µM [12]?
Answer: 71.1%

Question: What about the growth at 10 µM [13] of the same compound?
Answer: 80.5%

Question: And the growth at 10 µM [14]?
Answer: 61.9%

Question: What about the growth at 10 µM [33] of the same compound?
Answer: 75.7%

Question: What about the growth at 10 µM [15] of the same compound?
Answer: 43.5%

Question: What about the growth at 10 µM [17] of the same compound?
Answer: 83.5%

Question: What about the growth at 10 µM [18] of the same compound?
Answer: 85.5%

Question: What about the growth at 10 µM [19] of the same compound?
Answer: 86.8%

Question: And the growth at 10 µM [20]?
Answer: 101%

Question: And the growth at 10 µM [21]?
Answer: 58.9%

Question: What about the growth at 10 µM [22] of the same compound?
Answer: 85.5%

Question: What about the growth at 10 µM [23] of the same compound?
Answer: 83.5%

Question: What about the growth at 10 µM [24] of the same compound?
Answer: 73%

Question: What about the growth at 10 µM [25] of the same compound?
Answer: 88.4%

Question: What about the growth at 10 µM [27] of the same compound?
Answer: 47.4%

Question: And the growth at 10 µM [28]?
Answer: 107%

Question: And the growth at 10 µM [29]?
Answer: 88.7%

Question: And the growth at 10 µM [30]?
Answer: 74.1%

Question: And the growth at 10 µM [31]?
Answer: 98.4%

Question: And the growth at 10 µM [32]?
Answer: 84.7%
